Measurements from patent publication US20240018132A1, “5-HYDROXY-1,4-NAPHTHALENEDIONE FOR USE IN THE TREATMENT OF CANCER” (GODAVARI BIOREFINERIES LIMITED, priority 2020, published 2024).

Columns and labels:
Assay type in all cases: cell-based
[1] = tested on: MCF7; assay: In vitro antiproliferative assay (MTT assay), MCF7; conditions: Homo sapiens, second value of MDAMB231/MCF7 column
Description: MTT assay is a simple and sensitive assay where, metabolic reducing activity of the cells is measured. The increase of this activity in time is taken as a parameter of cell growth. If treatment with a drug impairs this increase, the action is a consequence of growth inhibition, cell killing or both. […] All cell lines were cultured in a 37° C. incubator with a 5% CO2 environment. Compounds were dissolved in DMSO with a concentration of 0.1M (stock solution). Cells were seeded into 96-well plates at suitable plating efficiency.
In the MTT procedure, the cells were plated in 96 well plates as per predetermined plating efficiency (Table1). The plates were then incubated for 24 hrs in 5% CO2 atmosphere at 37° C. Appropriate concentrations of the drugs were then added to the plate and further incubation was carried out for 48 hrs (in 5% CO2 atmosphere at 37° C.). The assay plate was then centrifuged twice at 3000 rpm for 3 mins and supernatant was then discarded. 100 ul of MTT solution (0.5 mg/ml) was then added to each well of the plate and it was further incubated for 4 hrs (in 5% CO2 atmosphere at 37° C.) Following 4 hr incubation, the plate was then centrifuged twice, and supernatant was aspirated off very carefully. 200 ul of DMSO was then added to each well to solubilize. MTT crystals and mixed well by shaking the plate. […]

[2] = tested on: PC3; assay: In vitro antiproliferative assay (MTT assay), prostate cancer cell line; conditions: Homo sapiens, PC-3, MTT assay, PC3
Outline: (§1)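 Compound exposure lasted 48 h at 37 °C in 5% CO2, following a 24 h attachment period; DMSO stocks were 0.1 M. Metabolic reduction of MTT (0.5 mg/ml, 4 h), solubilized in DMSO, gave viability, plotted as log % viability versus log drug concentration.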

[3] = tested on: MDAMB231; assay: In vitro antiproliferative assay (MTT assay), breast cancer cell line; conditions: Homo sapiens, MDA-MB-231, MTT assay, MDAMB231
Outline: as §1

| IC50 [1] [nM] | IC50 [2] [nM] | IC50 [3] [nM] | SMILES |
| --- | --- | --- | --- |
| 480 | 582 | 970 | O=C1C(Oc2ccc3c(c2)OCO3)=CC(=O)c2c(OCCCCN3CCOCC3)cccc21 [Formula 82] |
| 660 | 721 | 860 | O=C1C=C(Oc2ccc(F)c(F)c2)C(=O)c2c(OCCN3CCOCC3)cccc21 [Formula 83] |
